For one data set, the target named is GLP-1R (Homo sapiens, UniProt P43220). Nature of the data set: GLP-1 receptor-mediated cAMP induction, luciferase reporter gene antagonism assay. It counts as cell-based. Further details: host or cells: HEK 293. The following applies: antagonism of 0.05 nM GLP-1, HEK 293 cells. A digest of the protocol: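 HEK 293 cells cotransfected with human GLP-1 receptor and CRE-luciferase were serum-deprived 16 h, then given serial peptide dilutions followed by 0.05 nM GLP-1 and incubated 5 h at 37° C.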
GLP-1R, sequence (P43220 24-463): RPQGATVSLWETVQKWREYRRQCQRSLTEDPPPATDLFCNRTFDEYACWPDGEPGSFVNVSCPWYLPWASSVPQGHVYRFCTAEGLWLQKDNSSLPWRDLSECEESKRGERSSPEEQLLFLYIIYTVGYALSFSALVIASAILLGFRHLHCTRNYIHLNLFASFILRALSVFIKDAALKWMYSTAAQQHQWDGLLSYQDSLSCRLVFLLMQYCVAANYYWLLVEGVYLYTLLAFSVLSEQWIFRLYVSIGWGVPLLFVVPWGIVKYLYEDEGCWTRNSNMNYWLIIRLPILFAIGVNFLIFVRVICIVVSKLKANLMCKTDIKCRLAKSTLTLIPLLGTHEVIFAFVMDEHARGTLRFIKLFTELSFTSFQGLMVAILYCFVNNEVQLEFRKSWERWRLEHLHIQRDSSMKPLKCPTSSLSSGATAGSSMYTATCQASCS
Background: In a reporter assay the amount or activity of a reporter protein is the signal.

Setting [1] is: Table 3, amino acid substitution variants of Jant4-K40, read-out: Bioactivity IC50.
[2] abbreviates: 80 mM ammonium bicarbonate buffer, pH 7.7.
Setting [3] is: Table 5, d-AA variants of 9-40am Jant4 K40[C16], read-out: Bioactivity KC50.

Values after ≈ are worked out from the molar mass of the structure shown. Read-outs that look alike come from different tables or passages of the source. Non-standard residues stand in square brackets, D forms with d. Residues, ends and D or L forms follow the SMILES beside them. *: point of attachment. Palmitoyl = CCCCCCCCCCCCCCCC(=O)*; Aib = CC(C)(N)C(=O)O A value given as a limit tells only on which side of the number the result lay.

One may read the solubility as the dissolved amount per volume that the medium holds. A low value points to a poorly soluble substance.

As for `CCCCCCCCCCCCCCCC(=O)NCCCC[C@H](NC(=O)[C@H](CO)NC(=O)[C@@H]1CCCN1C(=O)[C@@H]1CCCN1C(=O)[C@@H]1CCCN1C(=O)[C@H](C)NC(=O)CNC(=O)[C@H](CO)NC(=O)[C@H](CO)NC(=O)[C@@H]1CCCN1C(=O)CNC(=O)CNC(=O)[C@H](CCCNC(=N)N)NC(=O)[C@@H](NC(=O)[C@H](CC(C)C)NC(=O)[C@H](Cc1c[nH]c2ccccc12)NC(=O)[C@H](C)NC(=O)[C@@H](NC(=O)[C@H](Cc1ccccc1)NC(=O)[C@H](CCC(=O)O)NC(=O)[C@H](CCCNC(=N)N)NC(=O)[C@@H](NC(=O)[C@H](C)NC(=O)[C@H](CCC(=O)O)NC(=O)[C@H](CCC(=O)O)NC(=O)[C@H](CCC(=O)O)NC(=O)[C@H](CC(C)C)NC(=O)[C@H](Cc1ccc(O)cc1)NC(=O)[C@H](CO)NC(=O)[C@H](CO)NC(=O)[C@@H](NC(=O)[C@@H](N)CC(=O)O)C(C)C)C(C)C)[C@@H](C)CC)C(C)C)C(N)=O` [compound 71] (H-DVSSYLEEEAVREFIAWLVRGGPSSGAPPPSK(Palmitoyl)-NH2; N-terminus assumed), the IC50 at GLP-1R (setting [1]) turned out to be 18 nM. The compound further gave a solubility in the data set “Solubility in buffer” (setting [2]) of over 20000 µg/mL.
For `CCCCCCCCCCCCCCCC(=O)NCCCC[C@H](NC(=O)[C@H](CO)NC(=O)[C@@H]1CCCN1C(=O)[C@@H]1CCCN1C(=O)[C@@H]1CCCN1C(=O)[C@H](C)NC(=O)CNC(=O)[C@H](CO)NC(=O)[C@H](CO)NC(=O)[C@@H]1CCCN1C(=O)CNC(=O)CNC(=O)[C@H](CCCNC(=N)N)NC(=O)[C@@H](NC(=O)[C@H](CC(C)C)NC(=O)[C@H](Cc1c[nH]c2ccccc12)NC(=O)[C@H](CCC(=O)O)NC(=O)[C@@H](NC(=O)[C@H](Cc1ccccc1)NC(=O)[C@H](CCC(=O)O)NC(=O)[C@H](CCCNC(=N)N)NC(=O)[C@@H](NC(=O)[C@H](C)NC(=O)[C@H](CCC(=O)O)NC(=O)[C@H](CCC(=O)O)NC(=O)[C@H](CCC(=O)O)NC(=O)[C@H](CC(C)C)NC(=O)[C@H](Cc1ccc(O)cc1)NC(=O)[C@H](CO)NC(=O)[C@H](CO)NC(=O)[C@@H](NC(=O)[C@@H](N)CC(=O)O)C(C)C)C(C)C)[C@@H](C)CC)C(C)C)C(N)=O` [compound 72] (H-DVSSYLEEEAVREFIEWLVRGGPSSGAPPPSK(Palmitoyl)-NH2; N-terminus assumed) the same measures were 19 nM and over 20000 µg/mL.
Take `CCCCCCCCCCCCCCCC(=O)NCCCC[C@H](NC(=O)[C@H](CO)NC(=O)[C@@H]1CCCN1C(=O)[C@@H]1CCCN1C(=O)[C@@H]1CCCN1C(=O)[C@H](C)NC(=O)CNC(=O)[C@H](CO)NC(=O)[C@H](CO)NC(=O)[C@@H]1CCCN1C(=O)CNC(=O)CNC(=O)[C@H](CCCNC(=N)N)NC(=O)[C@@H](NC(=O)[C@H](CC(C)C)NC(=O)[C@H](Cc1c[nH]c2ccccc12)NC(=O)[C@H](CCC(=O)O)NC(=O)[C@@H](NC(=O)[C@H](Cc1ccccc1)NC(=O)[C@H](CCC(=O)O)NC(=O)[C@H](CCCNC(=N)N)NC(=O)[C@@H](NC(=O)[C@H](C)NC(=O)[C@H](CCC(=O)O)NC(=O)[C@H](CCC(=O)O)NC(=O)[C@H](CCC(=O)O)NC(=O)[C@H](CC(C)C)NC(=O)[C@H](Cc1ccc(O)cc1)NC(=O)[C@H](CCCNC(=N)N)NC(=O)[C@H](CO)NC(=O)[C@@H](NC(=O)[C@@H](N)CC(=O)O)C(C)C)C(C)C)[C@@H](C)CC)C(C)C)C(N)=O` [compound 75] (H-DVSRYLEEEAVREFIEWLVRGGPSSGAPPPSK(Palmitoyl)-NH2; N-terminus assumed): the IC50 on GLP-1R (setting [1]) amounted to 19 nM. The solubility in “Solubility in buffer” (setting [2]) was found to be 18600 µg/mL (≈ 4900 µM).
In the case of `CCCCCCCCCCCCCCCC(=O)NCCCC[C@H](NC(=O)[C@H](CO)NC(=O)[C@@H]1CCCN1C(=O)[C@@H]1CCCN1C(=O)[C@@H]1CCCN1C(=O)[C@H](C)NC(=O)CNC(=O)[C@H](CO)NC(=O)[C@H](CO)NC(=O)[C@@H]1CCCN1C(=O)CNC(=O)CNC(=O)[C@H](CCCCN)NC(=O)[C@@H](NC(=O)[C@H](CC(C)C)NC(=O)[C@H](Cc1c[nH]c2ccccc12)NC(=O)[C@H](C)NC(=O)[C@@H](NC(=O)[C@H](Cc1ccccc1)NC(=O)[C@H](CCC(=O)O)NC(=O)[C@H](CCCNC(=N)N)NC(=O)[C@@H](NC(=O)[C@H](C)NC(=O)[C@H](CCC(N)=O)NC(=O)C(C)(C)NC(=O)[C@H](CCC(=O)O)NC(=O)[C@H](CC(C)C)NC(=O)[C@H](Cc1ccc(O)cc1)NC(=O)[C@H](CO)NC(=O)[C@H](CO)NC(=O)[C@@H](NC(=O)[C@@H](N)CC(=O)O)C(C)C)C(C)C)[C@@H](C)CC)C(C)C)C(N)=O` [compound 84] (H-DVSSYLE[Aib]QAVREFIAWLVKGGPSSGAPPPSK(Palmitoyl)-NH2), the IC50 on GLP-1R (Table 4, Aib variants of 9-40am Jant4 K40[C16], read-out: Bioactivity IC50) is 30 nM. Further, the solubility in “Solubility in buffer” (setting [2]) came out at 5200 µg/mL (≈ 1450 µM); in the data set “Solubility in buffer” (PBS, pH 7.7, Solubility [mg/mL] PBS pH7.7, Table 4, PBS pH7.7) it was 200 µg/mL (≈ 55.6 µM).
For `CCCCCCCCCCCCCCCC(=O)NCCCC[C@H](NC(=O)[C@H](CO)NC(=O)[C@@H]1CCCN1C(=O)[C@@H]1CCCN1C(=O)[C@@H]1CCCN1C(=O)[C@H](C)NC(=O)CNC(=O)[C@H](CO)NC(=O)[C@H](CO)NC(=O)[C@@H]1CCCN1C(=O)CNC(=O)CNC(=O)[C@H](CCCCN)NC(=O)[C@@H](NC(=O)[C@H](CC(C)C)NC(=O)[C@H](Cc1c[nH]c2ccccc12)NC(=O)[C@H](C)NC(=O)[C@@H](NC(=O)[C@H](Cc1ccccc1)NC(=O)[C@H](CCC(=O)O)NC(=O)[C@H](CCCNC(=N)N)NC(=O)[C@@H](NC(=O)[C@H](C)NC(=O)[C@H](CCC(N)=O)NC(=O)[C@@H](CCC(=O)O)NC(=O)[C@H](CCC(=O)O)NC(=O)[C@H](CC(C)C)NC(=O)[C@H](Cc1ccc(O)cc1)NC(=O)[C@H](CO)NC(=O)[C@H](CO)NC(=O)[C@@H](NC(=O)[C@@H](N)CC(=O)O)C(C)C)C(C)C)[C@@H](C)CC)C(C)C)C(N)=O` [compound 85] (H-DVSSYLE[dE]QAVREFIAWLVKGGPSSGAPPPSK(Palmitoyl)-NH2; N-terminus assumed), the IC50 at GLP-1R (setting [3]) stood at 41 nM. The solubility in “Solubility in buffer” (setting [2]) came to 10700 µg/mL (≈ 2940 µM).
With `CCCCCCCCCCCCCCCC(=O)NCCCC[C@H](NC(=O)[C@H](CO)NC(=O)[C@@H]1CCCN1C(=O)[C@@H]1CCCN1C(=O)[C@@H]1CCCN1C(=O)[C@H](C)NC(=O)CNC(=O)[C@H](CO)NC(=O)[C@H](CO)NC(=O)[C@@H]1CCCN1C(=O)CNC(=O)CNC(=O)[C@H](CCCCN)NC(=O)[C@@H](NC(=O)[C@H](CC(C)C)NC(=O)[C@H](Cc1c[nH]c2ccccc12)NC(=O)[C@H](C)NC(=O)[C@@H](NC(=O)[C@H](Cc1ccccc1)NC(=O)[C@H](CCC(=O)O)NC(=O)[C@H](CCCNC(=N)N)NC(=O)[C@@H](NC(=O)[C@H](C)NC(=O)[C@@H](CCC(N)=O)NC(=O)[C@H](CCC(=O)O)NC(=O)[C@H](CCC(=O)O)NC(=O)[C@H](CC(C)C)NC(=O)[C@H](Cc1ccc(O)cc1)NC(=O)[C@H](CO)NC(=O)[C@H](CO)NC(=O)[C@@H](NC(=O)[C@@H](N)CC(=O)O)C(C)C)C(C)C)[C@@H](C)CC)C(C)C)C(N)=O` [compound 86] (H-DVSSYLEE[dQ]AVREFIAWLVKGGPSSGAPPPSK(Palmitoyl)-NH2), on GLP-1R (setting [3]), the IC50 came to 41 nM. For the same compound, the solubility in “Solubility in buffer” (setting [2]) came to 2200 µg/mL (≈ 604 µM).
The matching figures for `CCCCCCCCCCCCCCCC(=O)NCCCC[C@H](NC(=O)[C@H](CO)NC(=O)[C@@H]1CCCN1C(=O)[C@@H]1CCCN1C(=O)[C@@H]1CCCN1C(=O)[C@H](C)NC(=O)CNC(=O)[C@H](CO)NC(=O)[C@H](CO)NC(=O)[C@@H]1CCCN1C(=O)CNC(=O)CNC(=O)[C@H](CCCCN)NC(=O)[C@@H](NC(=O)[C@H](CC(C)C)NC(=O)[C@H](Cc1c[nH]c2ccccc12)NC(=O)[C@H](C)NC(=O)[C@@H](NC(=O)[C@H](Cc1ccccc1)NC(=O)[C@H](CCC(=O)O)NC(=O)[C@@H](CCCNC(=N)N)NC(=O)[C@@H](NC(=O)[C@H](C)NC(=O)[C@H](CCC(N)=O)NC(=O)[C@H](CCC(=O)O)NC(=O)[C@H](CCC(=O)O)NC(=O)[C@H](CC(C)C)NC(=O)[C@H](Cc1ccc(O)cc1)NC(=O)[C@H](CO)NC(=O)[C@H](CO)NC(=O)[C@@H](NC(=O)[C@@H](N)CC(=O)O)C(C)C)C(C)C)[C@@H](C)CC)C(C)C)C(N)=O` [compound 87] (H-DVSSYLEEQAV[dR]EFIAWLVKGGPSSGAPPPSK(Palmitoyl)-NH2; N-terminus assumed): 16 nM and 800 µg/mL (≈ 220 µM).
The matching figures for `CCCCCCCCCCCCCCCC(=O)NCCCC[C@H](NC(=O)[C@H](CO)NC(=O)[C@@H]1CCCN1C(=O)[C@@H]1CCCN1C(=O)[C@@H]1CCCN1C(=O)[C@H](C)NC(=O)CNC(=O)[C@H](CO)NC(=O)[C@H](CO)NC(=O)[C@@H]1CCCN1C(=O)CNC(=O)CNC(=O)[C@H](CCCCN)NC(=O)[C@@H](NC(=O)[C@H](CC(C)C)NC(=O)[C@H](Cc1c[nH]c2ccccc12)NC(=O)[C@H](C)NC(=O)[C@@H](NC(=O)[C@H](Cc1ccccc1)NC(=O)[C@@H](CCC(=O)O)NC(=O)[C@H](CCCNC(=N)N)NC(=O)[C@@H](NC(=O)[C@H](C)NC(=O)[C@H](CCC(N)=O)NC(=O)[C@H](CCC(=O)O)NC(=O)[C@H](CCC(=O)O)NC(=O)[C@H](CC(C)C)NC(=O)[C@H](Cc1ccc(O)cc1)NC(=O)[C@H](CO)NC(=O)[C@H](CO)NC(=O)[C@@H](NC(=O)[C@@H](N)CC(=O)O)C(C)C)C(C)C)[C@@H](C)CC)C(C)C)C(N)=O` [compound 88] (H-DVSSYLEEQAVR[dE]FIAWLVKGGPSSGAPPPSK(Palmitoyl)-NH2): 27 nM and 1700 µg/mL (≈ 467 µM).

For the origin of these results see patent US20240058422A1, “GLUCAGON-LIKE PEPTIDE-1 RECEPTOR ANTAGONISTS” (INDIANA UNIVERSITY RESEARCH AND TECHNOLOGY CORPORATION, priority 2022, published 2024).
